Source: ChEMBL document CHEMBL1201861, “Genomics of Drug Sensitity in Cancer screening data, Wellcome Trust Sanger Institute”

Legend:
Test in all cases: cells
Type in all cases: functional, cell-based
Conditions in all cases: Homo sapiens
[1] = tested on: LU-139
Description: SANGER: Inhibition of human LU-139 cell growth in a cell viability assay.

[2] = tested on: CCRF-CEM;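 note: inhibition of CCRF-CEM cell growth, measured by a cell viability assay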
Description: SANGER: Inhibition of human CCRF-CEM cell growth in a cell viability assay.

[3] = tested on: RKO;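 note: growth inhibition of human RKO cells, read out with a cell viability assay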
Description: SANGER: Inhibition of human RKO cell growth in a cell viability assay.

[4] = tested on: NB6;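 note: growth inhibition of NB6 cells, read out by a cell viability assay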
Description: SANGER: Inhibition of human NB6 cell growth in a cell viability assay.

[5] = tested on: OCUB-M;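 note: growth inhibition of the cancer cell line, read out through a cell viability assay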
Description: SANGER: Inhibition of human OCUB-M cell growth in a cell viability assay.

[6] = tested on: NCI-H1092;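 note: cell growth inhibition measured with a cell viability assay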
Description: SANGER: Inhibition of human NCI-H1092 cell growth in a cell viability assay.

[7] = tested on: LAN-6;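 note: growth inhibition of LAN-6 cells, determined with a cell viability assay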
Description: SANGER: Inhibition of human LAN-6 cell growth in a cell viability assay.

[8] = tested on: MMAC-SF;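 note: growth inhibition of human MMAC-SF cells, read out with a cell viability assay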
Description: SANGER: Inhibition of human MMAC-SF cell growth in a cell viability assay.

[9] = tested on: Ramos-2G6-4C10;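 note: growth inhibition of the cell line, measured by a cell viability read-out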
Description: SANGER: Inhibition of human Ramos-2G6-4C10 cell growth in a cell viability assay.

[10] = tested on: OVCAR-4;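 note: growth inhibition of human OVCAR-4 cells, measured with a cell viability assay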
Description: SANGER: Inhibition of human OVCAR-4 cell growth in a cell viability assay.

[11] = tested on: SNU-C2B;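 note: cell viability readout used to measure compound-driven suppression of SNU-C2B cell proliferation, IC50 marking half-maximal growth inhibition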
Description: SANGER: Inhibition of human SNU-C2B cell growth in a cell viability assay.

[12] = tested on: SK-UT-1;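 note: growth inhibition of SK-UT-1 cells, measured by a cell viability assay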
Description: SANGER: Inhibition of human SK-UT-1 cell growth in a cell viability assay.

[13] = tested on: NCI-H1304;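 note: growth inhibition of the cancer cell line, measured in a cell viability assay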
Description: SANGER: Inhibition of human NCI-H1304 cell growth in a cell viability assay.

[14] = tested on: BE-13;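 note: growth inhibition of human BE-13 cells, measured with a cell viability assay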
Description: SANGER: Inhibition of human BE-13 cell growth in a cell viability assay.

[15] = tested on: NCI-H226;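 note: cell viability read-out used to gauge growth inhibition of the cells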
Description: SANGER: Inhibition of human NCI-H226 cell growth in a cell viability assay.

[16] = tested on: MLMA;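 note: growth inhibition of MLMA cells (human), determined through a cell viability readout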
Description: SANGER: Inhibition of human MLMA cell growth in a cell viability assay.

[17] = tested on: TE-9;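 note: cell growth inhibition, measured with a cell viability readout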
Description: SANGER: Inhibition of human TE-9 cell growth in a cell viability assay.

[18] = tested on: TE-10;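 note: growth inhibition of TE-10 cells, measured by a cell viability assay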
Description: SANGER: Inhibition of human TE-10 cell growth in a cell viability assay.

[19] = tested on: DB
Description: SANGER: Inhibition of human DB cell growth in a cell viability assay.

[20] = tested on: RCC10RGB;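 note: growth inhibition of human RCC10RGB cells, read out by a cell viability assay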
Description: SANGER: Inhibition of human RCC10RGB cell growth in a cell viability assay.

[21] = tested on: DSH1;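 note: growth inhibition of human DSH1 cells, measured with a cell viability readout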
Description: SANGER: Inhibition of human DSH1 cell growth in a cell viability assay.

[22] = tested on: A101D;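 note: growth inhibition of the cell line, measured with a viability assay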
Description: SANGER: Inhibition of human A101D cell growth in a cell viability assay.

[23] = tested on: LB771-HNC;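 note: growth inhibition of LB771-HNC human cells, read out with a cell viability assay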
Description: SANGER: Inhibition of human LB771-HNC cell growth in a cell viability assay.

[24] = tested on: OCI-AML2;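 note: growth inhibition of OCI-AML2 cells, read out with a cell viability assay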
Description: SANGER: Inhibition of human OCI-AML2 cell growth in a cell viability assay.

[25] = tested on: HT-144
Description: SANGER: Inhibition of human HT-144 cell growth in a cell viability assay.

[26] = tested on: ES1;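 note: growth inhibition of ES1 cells, read out with a cell viability assay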
Description: SANGER: Inhibition of human ES1 cell growth in a cell viability assay.

[27] = tested on: BB30-HNC;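 note: growth inhibition of the cultured cell line, read out by a cell viability assay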
Description: SANGER: Inhibition of human BB30-HNC cell growth in a cell viability assay.

[28] = tested on: SK-PN-DW;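 note: growth inhibition measured with a viability assay on these cells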
Description: SANGER: Inhibition of human SK-PN-DW cell growth in a cell viability assay.

[29] = tested on: Mo
Description: SANGER: Inhibition of human Mo-T cell growth in a cell viability assay.

[30] = tested on: CGTH-W-1;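 note: growth inhibition of human CGTH-W-1 cells measured by cell viability assay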
Description: SANGER: Inhibition of human CGTH-W-1 cell growth in a cell viability assay.

[31] = tested on: UACC-257
Description: SANGER: Inhibition of human UACC-257 cell growth in a cell viability assay.

[32] = tested on: BT-474
Description: SANGER: Inhibition of human BT-474 cell growth in a cell viability assay.

[33] = tested on: KARPAS-299
Description: SANGER: Inhibition of human KARPAS-299 cell growth in a cell viability assay.

[34] = tested on: SF-268;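 note: growth inhibition of SF-268 cells determined with a cell viability assay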
Description: SANGER: Inhibition of human SF268 cell growth in a cell viability assay.

[35] = tested on: TE-6;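 note: growth inhibition of TE-6 cells, read out with a cell viability assay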
Description: SANGER: Inhibition of human TE-6 cell growth in a cell viability assay.

[36] = tested on: LXF-289 cell line
Description: SANGER: Inhibition of human LXF-289 cell growth in a cell viability assay.

[37] = tested on: LS-513
Description: SANGER: Inhibition of human LS-513 cell growth in a cell viability assay.

[38] = tested on: K562
Description: SANGER: Inhibition of human K-562 cell growth in a cell viability assay.

[39] = tested on: HT
Description: SANGER: Inhibition of human HT cell growth in a cell viability assay.

[40] = tested on: LOX IMVI
Description: SANGER: Inhibition of human LOXIMVI cell growth in a cell viability assay.

[41] = tested on: MFM-223
Description: SANGER: Inhibition of human MFM-223 cell growth in a cell viability assay.

[42] = tested on: MZ1-PC;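 note: cell viability assay measuring growth inhibition of human MZ1-PC cells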
Description: SANGER: Inhibition of human MZ1-PC cell growth in a cell viability assay.

[43] = tested on: MC116;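 note: growth inhibition of MC116 cells, read out with a cell viability assay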
Description: SANGER: Inhibition of human MC116 cell growth in a cell viability assay.

[44] = tested on: 697
Description: SANGER: Inhibition of human 697 cell growth in a cell viability assay.

[45] = tested on: GR-ST
Description: SANGER: Inhibition of human GR-ST cell growth in a cell viability assay.

[46] = tested on: SNU-5;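 note: cell viability readout used to measure growth inhibition in human NCI-SNU-5 cells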
Description: SANGER: Inhibition of human NCI-SNU-5 cell growth in a cell viability assay.

[47] = tested on: NB5;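 note: growth inhibition of NB5 cells, read out as cell viability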
Description: SANGER: Inhibition of human NB5 cell growth in a cell viability assay.

[48] = tested on: NMC-G1;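 note: growth inhibition of the NMC-G1 cell line, measured with a cell viability read-out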
Description: SANGER: Inhibition of human NMC-G1 cell growth in a cell viability assay.

[49] = tested on: NH-12;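 note: growth inhibition of NH-12 cells, read out with a cell viability assay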
Description: SANGER: Inhibition of human NH-12 cell growth in a cell viability assay.

[50] = tested on: NCI-H446;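 note: growth inhibition of NCI-H446 cells determined by a cell viability assay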
Description: SANGER: Inhibition of human NCI-H446 cell growth in a cell viability assay.

[51] = tested on: 8-MG-BA;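 note: growth inhibition of 8-MG-BA cells, read out with a cell viability assay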
Description: SANGER: Inhibition of human 8-MG-BA cell growth in a cell viability assay.

[52] = tested on: NCI-H1838;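 note: growth inhibition of NCI-H1838 cells, determined with a cell viability readout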
Description: SANGER: Inhibition of human NCI-H1838 cell growth in a cell viability assay.

[53] = tested on: KMOE-2;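 note: growth inhibition of human KMOE-2 cells, read out with a cell viability assay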
Description: SANGER: Inhibition of human KMOE-2 cell growth in a cell viability assay.

[54] = tested on: MZ7-mel;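 note: growth inhibition of human MZ7-mel cells, measured by a cell viability assay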
Description: SANGER: Inhibition of human MZ7-mel cell growth in a cell viability assay.

[55] = tested on: LC-2-ad;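 note: growth inhibition of human LC-2-ad cells, read out with a cell viability assay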
Description: SANGER: Inhibition of human LC-2-ad cell growth in a cell viability assay.

[56] = tested on: NCI-H1650;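 note: growth inhibition of human NCI-H1650 cells measured by a cell viability assay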
Description: SANGER: Inhibition of human NCI-H1650 cell growth in a cell viability assay.

[57] = tested on: LB373-MEL-D;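 note: growth inhibition of the cell line, read out in a cell viability assay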
Description: SANGER: Inhibition of human LB373-MEL-D cell growth in a cell viability assay.

[58] = tested on: ES7;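 note: growth inhibition of cultured human ES7 cells, read out as cell viability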
Description: SANGER: Inhibition of human ES7 cell growth in a cell viability assay.

[59] = tested on: TE-8;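 note: growth inhibition of TE-8 cells, measured with a cell viability readout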
Description: SANGER: Inhibition of human TE-8 cell growth in a cell viability assay.

[60] = tested on: EW-1;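 note: growth inhibition of the human EW-1 cell line, read out by a cell viability assay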
Description: SANGER: Inhibition of human EW-1 cell growth in a cell viability assay.

[61] = tested on: LB2518-MEL;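 note: growth inhibition of human LB2518-MEL cells, measured with a cell viability assay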
Description: SANGER: Inhibition of human LB2518-MEL cell growth in a cell viability assay.

[62] = tested on: IA-LM;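 note: cell viability assay measuring growth inhibition of human IA-LM cells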
Description: SANGER: Inhibition of human IA-LM cell growth in a cell viability assay.

[63] = tested on: RPMI-8226
Description: SANGER: Inhibition of human RPMI-8226 cell growth in a cell viability assay.

[64] = tested on: NCI-H82;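 note: growth inhibition of NCI-H82 cells, measured with a cell viability readout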
Description: SANGER: Inhibition of human NCI-H82 cell growth in a cell viability assay.

[65] = tested on: PSN1;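 note: suppression of growth of human PSN1 cells, read out by a cell viability assay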
Description: SANGER: Inhibition of human PSN1 cell growth in a cell viability assay.

[66] = tested on: HC-1
Description: SANGER: Inhibition of human HC-1 cell growth in a cell viability assay.

For C/C=C(/C)C(=O)O[C@H]1C(C)=C2[C@H]([C@@H]1OC(=O)CCCCCCC)[C@@](C)(OC(C)=O)C[C@H](OC(=O)CCC)[C@@]1(O)[C@H]2OC(=O)[C@@]1(C)O [THAPSIGARGIN], the IC50 [1] was 33.6 nM, the IC50 [2] was 30.9 nM and the IC50 [3] was 1.61 nM. It also gave an IC50 [4] of 4.58 nM, an IC50 [5] of 0.597 nM and an IC50 [6] greater than 512 nM. For the same compound, the IC50 [7] was greater than 512 nM, the IC50 [8] was 28.3 nM and the IC50 [9] was 0.855 nM. For the same compound, the IC50 [10] was 2.93 nM, the IC50 [11] was 12.4 nM and the IC50 [12] was 23.3 nM. For the same compound, the IC50 [13] was 59.1 nM, the IC50 [14] was 7.35 nM and the IC50 [15] was 2.41 nM. For the same compound, the IC50 [16] was 57.5 nM, the IC50 [17] was 13.3 nM and the IC50 [18] was 1.57 nM. The IC50 [19] was 2.55 nM, the IC50 [20] was greater than 512 nM and the IC50 [21] was 13.9 nM. For the same compound, the IC50 [22] was 4.82 nM, the IC50 [23] was 64.1 nM and the IC50 [24] was 8.04 nM. The IC50 [25] was 0.518 nM, the IC50 [26] was less than 2 nM and the IC50 [27] was 0.984 nM. The IC50 [28] was less than 2 nM, the IC50 [29] was greater than 512 nM and the IC50 [30] was less than 2 nM. For the same compound, the IC50 [31] was 115 nM, the IC50 [32] was 210 nM and the IC50 [33] was 35.6 nM. The IC50 [34] was 2.26 nM, the IC50 [35] was 17.8 nM and the IC50 [36] was less than 2 nM. The IC50 [37] was 154 nM, the IC50 [38] was 305 nM and the IC50 [39] was 5.7 nM. For the same compound, the IC50 [40] was 2.98 nM, the IC50 [41] was greater than 512 nM and the IC50 [42] was less than 2 nM. The IC50 [43] was less than 2 nM, the IC50 [44] was less than 2 nM and the IC50 [45] was 10.5 nM. The IC50 [46] was 91.4 nM, the IC50 [47] was 66.6 nM and the IC50 [48] was 21.5 nM. For the same compound, the IC50 [49] was 24 nM, the IC50 [50] was 35.4 nM and the IC50 [51] was 1.99 nM. For the same compound, the IC50 [52] was greater than 512 nM, the IC50 [53] was 82.9 nM and the IC50 [54] was 107 nM. The IC50 [55] was 4.64 nM, the IC50 [56] was 147 nM and the IC50 [57] was 29.1 nM. For the same compound, the IC50 [58] was 21.1 nM, the IC50 [59] was 1.37 nM and the IC50 [60] was 3.88 nM. For the same compound, the IC50 [61] was 17.3 nM, the IC50 [62] was 2.39 nM and the IC50 [63] was 14.9 nM. It also gave an IC50 [64] of 31.1 nM, an IC50 [65] of less than 2 nM and an IC50 [66] of 109 nM.
Compound C[C@]1(c2nc3c(C(N)=O)cccc3[nH]2)CCCN1 [VELIPARIB] has an IC50 [1] greater than 5000 nM, an IC50 [2] greater than 5000 nM and an IC50 [3] greater than 5000 nM. The IC50 [4] was greater than 5000 nM, the IC50 [5] was greater than 5000 nM and the IC50 [6] was greater than 5000 nM. For the same compound, the IC50 [7] was greater than 5000 nM, the IC50 [8] was greater than 5000 nM and the IC50 [9] was greater than 5000 nM. The IC50 [10] was greater than 5000 nM, the IC50 [11] was greater than 5000 nM and the IC50 [12] was greater than 5000 nM. The IC50 [13] was greater than 5000 nM, the IC50 [14] was greater than 5000 nM and the IC50 [15] was greater than 5000 nM. It also gave an IC50 [16] greater than 5000 nM, an IC50 [17] greater than 5000 nM and an IC50 [18] greater than 5000 nM. For the same compound, the IC50 [19] was greater than 5000 nM, the IC50 [20] was greater than 5000 nM and the IC50 [21] was greater than 5000 nM. For the same compound, the IC50 [22] was greater than 5000 nM, the IC50 [23] was greater than 5000 nM and the IC50 [24] was greater than 5000 nM. For the same compound, the IC50 [25] was greater than 5000 nM, the IC50 [26] was greater than 5000 nM and the IC50 [27] was greater than 5000 nM. The IC50 [28] was greater than 5000 nM, the IC50 [29] was greater than 5000 nM and the IC50 [30] was greater than 5000 nM. It also gave an IC50 [31] greater than 5000 nM, an IC50 [32] greater than 5000 nM and an IC50 [33] greater than 5000 nM. It also gave an IC50 [34] greater than 5000 nM, an IC50 [35] greater than 5000 nM and an IC50 [36] greater than 5000 nM. The IC50 [37] was greater than 5000 nM, the IC50 [38] was greater than 5000 nM and the IC50 [39] was greater than 5000 nM. For the same compound, the IC50 [40] was greater than 5000 nM, the IC50 [41] was greater than 5000 nM and the IC50 [42] was greater than 5000 nM. The IC50 [43] was greater than 5000 nM, the IC50 [44] was greater than 5000 nM and the IC50 [45] was greater than 5000 nM. The IC50 [46] was 3130 nM, the IC50 [47] was greater than 5000 nM and the IC50 [48] was greater than 5000 nM. For the same compound, the IC50 [49] was greater than 5000 nM, the IC50 [50] was greater than 5000 nM and the IC50 [51] was greater than 5000 nM. It also gave an IC50 [52] greater than 5000 nM, an IC50 [53] greater than 5000 nM and an IC50 [54] greater than 5000 nM. It also gave an IC50 [55] greater than 5000 nM, an IC50 [56] greater than 5000 nM and an IC50 [57] greater than 5000 nM. The IC50 [58] was greater than 5000 nM, the IC50 [59] was greater than 5000 nM and the IC50 [60] was greater than 5000 nM. For the same compound, the IC50 [61] was greater than 5000 nM, the IC50 [62] was greater than 5000 nM and the IC50 [63] was greater than 5000 nM. For the same compound, the IC50 [64] was greater than 5000 nM, the IC50 [65] was greater than 5000 nM and the IC50 [66] was greater than 5000 nM.
